Results: PubChem BioAssay (NCI)
Several values for one entry are separate records, joined by “and”; a condition that tells them apart may be missing. Identical values can stand only once.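 Test compounds were applied to cells in 96-well plates for 48 hours at 5 doses. At the GI50, growth is halved. TGI: concentration producing complete growth inhibition.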

tested on: NCI-H226 lung; assay: NCI anticancer screen, dose series, 48 h

Structure (SMILES) | GI50 [µM] | TGI [µM]
COc1cc(/C=N/NC(=O)c2ccc(C(F)(F)F)nc2Nc2ccc(Cl)cc2C)ccc1O | 1.28 | 5.01
COc1ccc(C(=O)Cn2c(C(=O)c3ccccc3)nc(-c3ccc(OC)cc3)c2-c2ccc(OC)cc2)cc1 | > 100 | > 100
O=C1c2ccccc2C2C1N2C(=O)C(F)(F)F (configuration not stated) | – | > 100
N#CCCN(CCC#N)c1ccc(/C=C2\N=C(c3cc([N+](=O)[O-])ccc3Cl)OC2=O)cc1 | – | 44
CSc1nc2c(c(=O)[nH]1)N=C1c3ccccc3C(=O)C1C(c1ccccc1)N2 (configuration not stated) | 4.2 | > 100
CCOC(=O)[C@]1(OC(C)=O)C[C@H](OC(C)=O)[C@@H](C(F)COP(=O)(OCc2ccccc2)OCc2ccccc2)O1 (some centres not stated) | – | > 100
CC1=C(C(=O)Nc2ccc(Cl)c(Cl)c2)C(c2cccc(Oc3ccccc3)c2)NC(=S)N1 (configuration not stated) | 9.68 | 19.5
c1ccc2cc(-c3cc(-c4cc(-c5ccc6ccccc6c5)on4)no3)ccc2c1 | – | > 100

tested on: SNB-19 CNS; assay: NCI anticancer screen, dose series, 48 h

Structure (SMILES) | TGI | GI50
N#CC1C(C#N)C2(c3ccccc3)C(c3ccccc3)=NN(c3ccccc3)CC12 (configuration not stated) | > 100 µM | –
COc1cc(Cc2cnc(/N=C3\C(=O)N(CN4CCN(c5c(F)cc6c(=O)c(C(=O)O)cn(C7CC7)c6c5OC)CC4C)c4ccc(F)cc43)nc2N)cc(OC)c1OC (configuration not stated) | 51.3 µM | 17.7 µM
C=C(CN1CCN(c2ccc(Cl)cc2F)CC1)c1ccc(C(=O)Nc2ccccc2N)cc1 | > 34.3 µM | –
CC(C)=CC(=O)C1c2cccc(O)c2C(=O)c2c(O)cc(C)cc21 (configuration not stated) | 16.3 µM | –
O=C(Nc1ccccc1)NS(=O)(=O)c1ccc(-n2nc3c(c2-c2cccs2)Cc2ccccc2-3)cc1 | > 100 µM | > 100 µM
CCCCOC(=O)C1OC(O[C@H]2CCC3(C)C(CCC4(C)C3CC=C3C5CC(C)(C)CCC5(C(=O)O)CC[C@]34C)C2(C)C)C(OC2OC(CO)C(O)C(O)C2O)C(OC2OC(CO)C(O)C(O)C2O)C1O (some centres not stated) | 53.6 µM | 22.5 µM
O=C1C=C(Cl)C(=O)C(c2ccc(Cl)cc2)=C1 | > 100 µM | –
Cc1ccc2c(=O)cc(-c3ccc(F)cc3)[nH]c2n1 | > 100 µM | –
CCOc1ccc(NC(=O)C(=O)CC(=O)c2c[n+](=O)c3cc(C)c(C)cc3n2[O-])cc1 | > 100 µM | –
CN1C(=O)C(C)(C)C2(SC(C)(C)C2(C)C)N(C)C1=S (configuration not stated) | > 100 µM | –
Cn1cc(C2=C(c3cn(C)c4ncccc34)C(=O)NC2=O)c2ccccc21 | > 25 µM | 11.2 µM
O=C1C(Cl)=C(Nc2cccc(Cl)c2)C(=O)N1Cc1ccc(Cl)cc1Cl | 18 µM | 0.842 µM
O=C(/C=C/C12c3ccccc3C(c3ccccc31)C1C(=O)NC(=O)C12)c1ccncc1 (configuration not stated) | 7.46 µM | 2.33 µM
CC1(C)CCc2c(c3c(c4c(=O)c(O)c(-c5ccc(O)cc5)oc24)OC(C)(C)CC3)O1 | > 100 µM | 33.6 µM
CC12CCC(O)CC1CCC1C2CCC2(C)C(C3=CC(=O)OC3)CCC12O (configuration not stated) | 12.8 µM | –
CN/N=C(/Cc1occc(=O)c1O)C(=O)Nc1ccccc1C | > 100 µM | –
Cc1coc2c1CC1(C)C(CCC(O)C1C)C2 (configuration not stated) | > 100 µM | –
COc1ccc2c(c1)/C(=C/c1c(C)nc3sc(C)nn13)C(=O)N2 | > 37 µM | 1.94 µM
Cc1cc(I)cc(CN(C)CCCCN2CCCCC2)c1O | 45.9 µM | 19 µM
O=C(Nc1ccc(Cl)c(Cl)c1)Nc1ccc(Cl)c(Cl)c1 | 15.4 µM and 23 µM | 3.03 µM and 3.7 µM
C#Cc1ccc(-n2c(/C=C/c3ccc(C(F)(F)F)cc3)nc3ncccc3c2=O)cc1 | 4.25 µM | 1.91 µM
COc1cc(/C=N/NC(=O)c2ccc(C(F)(F)F)nc2Nc2ccc(Cl)cc2C)ccc1O | 14.5 µM | 3.73 µM
COc1ccc(C(=O)Cn2c(C(=O)c3ccccc3)nc(-c3ccc(OC)cc3)c2-c2ccc(OC)cc2)cc1 | > 100 µM | > 100 µM
O=C1c2ccccc2C2C1N2C(=O)C(F)(F)F (configuration not stated) | > 100 µM | –
N#CCCN(CCC#N)c1ccc(/C=C2\N=C(c3cc([N+](=O)[O-])ccc3Cl)OC2=O)cc1 | > 100 µM | –
CSc1nc2c(c(=O)[nH]1)N=C1c3ccccc3C(=O)C1C(c1ccccc1)N2 (configuration not stated) | > 100 µM | > 100 µM
CCOC(=O)[C@]1(OC(C)=O)C[C@H](OC(C)=O)[C@@H](C(F)COP(=O)(OCc2ccccc2)OCc2ccccc2)O1 (some centres not stated) | > 100 µM | 32.9 µM and > 100 µM
CC1=C(C(=O)Nc2ccc(Cl)c(Cl)c2)C(c2cccc(Oc3ccccc3)c2)NC(=S)N1 (configuration not stated) | 14.1 µM | 7.07 µM
c1ccc2cc(-c3cc(-c4cc(-c5ccc6ccccc6c5)on4)no3)ccc2c1 | > 100 µM | –
